Blank lines part the entries; values can stand above or below the molecule they belong to.
How the values were obtained:
Assay type in all cases: physicochemical
[1] = Gelling of water-immiscible cosmetic liquids in 96 well glass micro-titre plate; set-up: key: gel; g4: gel after overnight (18 hrs) storage at 4° C.; g22: gel after overnight (18 hrs) storage at 22° C.; sg: soft gel; sg22: soft gel after overnight (18 hrs) storage at 22° C.; solution; *: the test at 4° C. was not carried out; conditions: for gelling of ISA: 150° C. 2.5 hours, cooled to ambient
Procedure: In this Example, various samples of esterified cellobiose prepared as in Example 1 or 2 above, were used to gel water-immiscible cosmetic liquids, in accordance with the procedure given below, in which a large number of gels can be prepared simultaneously.
The samples were tested in a 96 well (8×12 rows) glass micro-titre plate. […] About 0.01 or 0.02 g of each esterified cellobiose material was placed into 8 consecutive wells in a single row, so that each well contained approximately 5% or 10% of the cellobiose ester. The balance in each well comprised the cosmetic liquid by addition of approximately 0.2 g of the respective liquid to each cell. A glass lid was placed on top of the plate. The plate was carefully placed in a thermostatically controlled fan-assisted oven set at 150° C. for 2.5 hours. The plate was removed from the oven and allowed to cool naturally to ambient laboratory temperature. The contents of the wells were assessed at the end of the cooling period, by visual inspection and by poking the contents of each well with a micro-spatula. The plates were stored at […] for 18 hours and the contents inspected, and further stored for 18 hours at 4° C. and inspected for a third time. The results obtained in the tests are summarised in Table 5 below, in which the legend is as follows: […]

[2] = DSC of gels: fibre dissolution temperature (FDT) and solubility of structurant; conditions: for Solubility of structurant at 25° C.: from DSC of gel, relative to benchmark REF 2; for FDT: gel heated at 5 K/min in DSC, peak temperature of the highest peak
Procedure: In this Example the Fibre dissolution temperature (FDT) is measured in the DSC process described later herein, by observing when the fibres dissolve whilst the temperature of sample rises. FDT is taken to be the peak temperature of the highest peak.
In REF2 and REF3, the acyl substituents at the other seven cellobiose sites are nonanoyl.
Samples of gel (about 20 mg) were sealed in stainless steel capsules for DSC. An empty stainless steel capsule was used as the physical reference. The samples were subjected to the following temperature programme:
The sample was heated to 100° C. and held at 100° C. for 1 minute, in order to obtain an isotropic solution. The sample was then cooled at 5 K/min to −20° C. The sample was held at −20° C. for 1 minute. The sample is now a gel on the bottom of the sample capsule prepared in a reproducible manner. The gel was then heated at 5 K/min to 100° C. Data was also obtained with empty stainless steel pans as both physical sample and reference. This blank data was later subtracted from the sample data to remove any curvature in the base line.

[3] = Visual assessment score (clarity of gel in 1 cm cuvette); conditions: for Clarity Visual (assessment score): scale −12 to 8
Text: A gel contained within a 1 cm thick cuvette was placed directly on to a sheet of white paper on which 21 sets of figures where printed in black. The size and thickness of the figures varied systematically and were numbered from −12 (the largest, thickest set) through 0 to 8 (the smallest thinnest set) The score given to each gel was the highest numbered set which could be read clearly through the gel, the higher the number, the higher the clarity.

[4] = Light transmission at 580 nm (% T); conditions: 580 nm
Procedure: The translucency of a composition may be measured by placing a sample of standardised thickness in the light path of a spectrophotometer and measuring transmittance, as a percentage of light transmitted in the absence of the gel.
This test was carried out using a dual-beam spectrophotometer. The sample of composition was poured hot into a 4.5 ml cuvette made of poly(methyl-methacrylate) (PMMA) and allowed to cool to an ambient temperature of 20-25° C. Such a cuvette gives a 1 cm thickness of composition. […] A transmittence measured at any temperature in the range from 20-25° C. is usually adequately accurate, but measurement is made at 22° C. if more precision is required.

[5] = Stability testing of gels: crystal growth visible by eye on storage at 37° C.
Procedure: Gels were made up using 10% structurant in a 60:40 mixture of Hydrogenated Polyisobutene (Panalene L14E):DC245. The gels, in sealed glass bottles, were left to stand for 18 hrs at room temperature, after which they were transferred to an oven thermostatically controlled to 37° C. Samples were checked periodically for signs of crystal growth visible by eye. REF1 is cellobiose octanonanoate.
Gels were made up and tested in accordance with the procedure in Example 6, as such or modified by employing a weight ratio of 9% of REF1 and 1% of an additional structurant as specified in Table 13 below.
The test procedure of Example 9 was repeated, but using ACB structurant REF2 alone as the structurant or to which a CHME structurant was added.

[6] = 5% cellobiose ester in Fluid AP
[7] = 5% cellobiose ester in Mineral oil
[8] = 5% cellobiose ester in Polydecene
[9] = 10% cellobiose ester in Fluid AP
[10] = 10% cellobiose ester in Mineral oil
[11] = 10% cellobiose ester in Polydecene
[12] = 9% REF2 and 1% of the specified ester in 60:40 hydrogenated polydecene:DC245
[13] = 60:40 hydrogenated polydecene:DC245 gelled with 9% REF2 and 1% of the specified cellobiose ester
[14] = 9% REF4 plus 1% of the named material in 60:40 hydrogenated polydecene:DC245
[15] = 9% REF4 plus 1% of the named material

Molecule: CCCCCCCCC(=O)OCC1OC(OC2C(COC(=O)CCCCCCCC)OC(OC(C)=O)C(OC(=O)CCCCCCCC)C2OC(=O)CCCCCCCC)C(OC(=O)CCCCCCCC)C(OC(=O)CCCCCCCC)C1OC(=O)CCCCCCCC (mixture of isomers) [Ex 1.5]
- gelling of DC556 ([1]; 5% cellobiose ester in DC556): g22
- gelling of Fluid AP [1, 6]: gel
- gelling of ISA ([1]; 5% cellobiose ester in ISA): g22
- gelling of Mineral oil [1, 7]: g22
- gelling of Polydecene [1, 8]: gel
- gelling of DC556 ([1]; 10% cellobiose ester in DC556): gel
- gelling of Fluid AP [1, 9]: gel
- gelling of ISA ([1]; 10% cellobiose ester in ISA): gel
- gelling of Mineral oil [1, 10]: gel
- gelling of Polydecene [1, 11]: gel
- Solubility of structurant at 25° C. [2]: Less soluble. No
- FDT [2]: 50 °C
- Clarity Visual (assessment score) [3, 12]: > 8
- Clarity Visual (appearance) [3, 13]: transparent
- Clarity % T [4, 12]: 49%

Molecule: CCCCCCCCC(=O)OCC1OC(OC2C(COC(=O)CCCCCCCC)OC(OC(C)=O)C(OC(=O)CCCCCCCC)C2OC(=O)CCCCCCCC)C(OC(=O)CCCCCCCC)C(OC(=O)CCCCCCCC)C1OC(=O)CCCCCCCC (mixture of isomers) [Ex 1.6]
- gelling of DC556 ([1]; 5% cellobiose ester in DC556): sg22
- gelling of Fluid AP [1, 6]: sg
- gelling of ISA ([1]; 5% cellobiose ester in ISA): sg
- gelling of Mineral oil [1, 7]: sg
- gelling of Polydecene [1, 8]: gel
- gelling of DC556 ([1]; 10% cellobiose ester in DC556): gel
- gelling of Fluid AP [1, 9]: gel
- gelling of ISA ([1]; 10% cellobiose ester in ISA): gel
- gelling of Mineral oil [1, 10]: gel
- gelling of Polydecene [1, 11]: gel
- Solubility of structurant at 25° C. [2]: Less soluble. No
- FDT [2]: 70 °C
- Clarity Visual (assessment score) [3, 12]: > 8
- Clarity Visual (appearance) [3, 13]: transparent
- Clarity % T [4, 12]: 49%

Molecule: CCCCCCCCCCCCCCCC(=O)OC1OC(COC(=O)CCCCCCCC)C(OC2OC(COC(=O)CCCCCCCC)C(OC(=O)CCCCCCCC)C(OC(=O)CCCCCCCC)C2OC(=O)CCCCCCCC)C(OC(=O)CCCCCCCC)C1OC(=O)CCCCCCCC (mixture of isomers) [Ex 1.9]
- gelling of DC556 ([1]; 5% cellobiose ester in DC556): gel
- gelling of Fluid AP [1, 6]: gel
- gelling of IPM ([1]; 5% cellobiose ester in IPM): g4
- gelling of ISA ([1]; 5% cellobiose ester in ISA): g22
- gelling of Mineral oil [1, 7]: g22
- gelling of Polydecene [1, 8]: gel
- gelling of IPM ([1]; 10% cellobiose ester in IPM): g4
- Clarity Visual (assessment score) [3, 12]: > 8
- Clarity Visual (appearance) [3, 13]: transparent
- Clarity % T [4, 12]: 45%

Molecule: CCCCCCCCCC(=O)OCC1OC(OC2C(COC(=O)CCCCCCCCC)OC(OC(=O)c3ccccc3)C(OC(=O)CCCCCCCCC)C2OC(=O)CCCCCCCCC)C(OC(=O)CCCCCCCCC)C(OC(=O)CCCCCCCCC)C1OC(=O)CCCCCCCCC (mixture of isomers) [Ex 2.1]
- gelling of DC556 ([1]; 5% cellobiose ester in DC556): gel
- gelling of Fluid AP [1, 6]: gel
- gelling of ISA ([1]; 5% cellobiose ester in ISA): gel
- gelling of Mineral oil [1, 7]: gel
- gelling of Polydecene [1, 8]: gel
- gelling of DC556 ([1]; 10% cellobiose ester in DC556): gel
- gelling of Fluid AP [1, 9]: gel
- gelling of ISA ([1]; 10% cellobiose ester in ISA): gel
- gelling of Mineral oil [1, 10]: gel
- gelling of Polydecene [1, 11]: gel
- Clarity Visual (appearance) [3, 14]: translucent
- Clarity Visual (assessment score) [3, 15]: −1
- Clarity % T [4, 15]: 9.53%

Molecule: CCCCCCCCCC(=O)OCC1OC(OC2C(COC(=O)CCCCCCCCC)OC(OC(=O)c3ccc4ccccc4c3)C(OC(=O)CCCCCCCCC)C2OC(=O)CCCCCCCCC)C(OC(=O)CCCCCCCCC)C(OC(=O)CCCCCCCCC)C1OC(=O)CCCCCCCCC (mixture of isomers) [Ex 2.7]
- gelling of DC556 ([1]; 5% cellobiose ester in DC556): gel
- gelling of Fluid AP [1, 6]: gel
- gelling of ISA ([1]; 5% cellobiose ester in ISA): gel
- gelling of Mineral oil [1, 7]: gel
- gelling of Polydecene [1, 8]: gel
- gelling of DC556 ([1]; 10% cellobiose ester in DC556): gel
- gelling of Fluid AP [1, 9]: gel
- gelling of ISA ([1]; 10% cellobiose ester in ISA): gel
- gelling of Mineral oil [1, 10]: gel
- gelling of Polydecene [1, 11]: gel
- Clarity Visual (appearance) [3, 14]: translucent
- Clarity Visual (assessment score) [3, 15]: 0
- Clarity % T [4, 15]: 8.7%

Molecule: CCCCCCCCCC(=O)OCC1OC(OC2C(COC(=O)CCCCCCCCC)OC(OC(=O)c3ccc(-c4ccccc4)cc3)C(OC(=O)CCCCCCCCC)C2OC(=O)CCCCCCCCC)C(OC(=O)CCCCCCCCC)C(OC(=O)CCCCCCCCC)C1OC(=O)CCCCCCCCC (mixture of isomers) [Ex 2.9]
- gelling of DC556 ([1]; 5% cellobiose ester in DC556): gel
- gelling of Fluid AP [1, 6]: gel
- gelling of ISA ([1]; 5% cellobiose ester in ISA): g22
- gelling of Mineral oil [1, 7]: sg
- gelling of Polydecene [1, 8]: gel
- gelling of DC556 ([1]; 10% cellobiose ester in DC556): gel
- gelling of Fluid AP [1, 9]: gel
- gelling of ISA ([1]; 10% cellobiose ester in ISA): gel
- gelling of Mineral oil [1, 10]: gel
- gelling of Polydecene [1, 11]: gel
- Clarity Visual (appearance) [3, 14]: translucent
- Clarity Visual (assessment score) [3, 15]: −3
- Clarity % T [4, 15]: 7.7%

Molecule: CCCCCCCCCC(=O)OCC1OC(OC2C(COC(=O)CCCCCCCCC)OC(OC(=O)C3CCCCC3)C(OC(=O)CCCCCCCCC)C2OC(=O)CCCCCCCCC)C(OC(=O)CCCCCCCCC)C(OC(=O)CCCCCCCCC)C1OC(=O)CCCCCCCCC (mixture of isomers) [Ex 2.10]
- gelling of DC556 ([1]; 5% cellobiose ester in DC556): gel
- gelling of Fluid AP [1, 6]: gel
- gelling of ISA ([1]; 5% cellobiose ester in ISA): g22
- gelling of Mineral oil [1, 7]: gel
- gelling of Polydecene [1, 8]: gel
- gelling of DC556 ([1]; 10% cellobiose ester in DC556): gel
- gelling of Fluid AP [1, 9]: gel
- gelling of ISA ([1]; 10% cellobiose ester in ISA): gel
- gelling of Mineral oil [1, 10]: gel
- gelling of Polydecene [1, 11]: gel
- Clarity Visual (appearance) [3, 14]: translucent
- Clarity Visual (assessment score) [3, 15]: −5
- Clarity % T [4, 15]: 5.9%

- gelling of DC556 ([1]; 5% cellobiose ester in DC556): gel
- gelling of Fluid AP [1, 6]: gel
- gelling of IPM ([1]; 5% cellobiose ester in IPM): sol
- gelling of ISA ([1]; 5% cellobiose ester in ISA): g22
- gelling of Mineral oil [1, 7]: gel
- gelling of Polydecene [1, 8]: gel
- gelling of DC556 ([1]; 10% cellobiose ester in DC556): gel
- gelling of Fluid AP [1, 9]: gel
- gelling of IPM ([1]; 10% cellobiose ester in IPM): g4
- gelling of ISA ([1]; 10% cellobiose ester in ISA): gel
- gelling of Mineral oil [1, 10]: gel
- gelling of Polydecene [1, 11]: gel
- Observations ([5]; 9% of REF1 and 1% of additional structurant, after 12 days at 37° C.): No crystal growth after 12 days at 37 °C
- Observation ([5]; 10% structurant in 60:40 Panalene L14E:DC245, after 17 days at 37° C.): No crystals after 17 days.
- Observation ([5]; REF2 to which the CHME structurant was added, after 11 days at 37° C.): Some needle crystals on surface after 11
- Clarity Visual (assessment score) [3, 12]: slight haze 6
- Clarity Visual (appearance) [3, 13]: transparent/
- Visual ([3]; gel in 60:40 w/w Silkflo 364:DC245, score scale −12 to 8): >8
- Clarity % T [4, 12]: 42%
Molecule: cellobiose heptanonanoate monocyclohexanoate [Ex 1.10]
- Observation ([5]; REF2 to which the CHME structurant was added, after 12 days at 37° C.): Some needle crystals in gel bulk after 12

From patent US6974804B2, “Esters” (Unilever Home & Personal Care USA, division of Conopco, Inc., priority 2000, dated 2005)
